From patent US5288720A, “Angiotensin II receptor blocking 2,3,6 substituted quinazolinones” (American Cyanamid Company, priority 1993, dated 1994)

Tested on: ANGIOTENSIN II VASOPRESSOR RESPONSE
Assay: AII Challenge: blockade of angiotensin II vasopressor response in conscious SHR
Assay type: in vivo, rat (Conscious Male Okamoto-Aoki SHR)
Conditions: SHR n=2
In short: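 Conscious male Okamoto-Aoki SHR (16-20 weeks, ~330 g) cannulated in aorta and vena cava under local procaine; angiotensin II (human) 0.05 and 0.1 ug/kg i.v. given before and at 30-300 min after test compound i.v., i.p. or orally. Rise in systolic pressure (mmHg) expressed as % blockade versus each rat's predose response.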

[1] = 3 mg/kg i.v., AII 0.05 mcg/kg IV, 30 min post dose
[2] = 3 mg/kg i.v., AII 0.05 mcg/kg IV, 60 min post dose
[3] = 3 mg/kg i.v., AII 0.05 mcg/kg IV, 90 min post dose
[4] = 3 mg/kg i.v., AII 0.05 mcg/kg IV, 120 min post dose
[5] = 3 mg/kg i.v., AII 0.05 mcg/kg IV, 180 min post dose
[6] = 3 mg/kg i.v., AII 0.05 mcg/kg IV, 240 min post dose
[7] = 3 mg/kg i.v., AII 0.05 mcg/kg IV, 300 min post dose
[8] = 3 mg/kg i.v., AII 0.1 mcg/kg IV, 30 min post dose
[9] = 3 mg/kg i.v., AII 0.1 mcg/kg IV, 60 min post dose
[10] = 3 mg/kg i.v., AII 0.1 mcg/kg IV, 90 min post dose
[11] = 3 mg/kg i.v., AII 0.1 mcg/kg IV, 120 min post dose
[12] = 3 mg/kg i.v., AII 0.1 mcg/kg IV, 180 min post dose
[13] = 3 mg/kg i.v., AII 0.1 mcg/kg IV, 240 min post dose
[14] = 3 mg/kg i.v., AII 0.1 mcg/kg IV, 300 min post dose
[15] = 3 mg/kg p.o., AII 0.05 mcg/kg IV, 30 min post dose
[16] = 3 mg/kg p.o., AII 0.05 mcg/kg IV, 60 min post dose
[17] = 3 mg/kg p.o., AII 0.05 mcg/kg IV, 90 min post dose
[18] = 3 mg/kg p.o., AII 0.05 mcg/kg IV, 120 min post dose
[19] = 3 mg/kg p.o., AII 0.05 mcg/kg IV, 180 min post dose
[20] = 3 mg/kg p.o., AII 0.1 mcg/kg IV, 30 min post dose
[21] = 3 mg/kg p.o., AII 0.1 mcg/kg IV, 60 min post dose
[22] = 3 mg/kg p.o., AII 0.1 mcg/kg IV, 90 min post dose
[23] = 3 mg/kg p.o., AII 0.1 mcg/kg IV, 120 min post dose
[24] = 3 mg/kg p.o., AII 0.1 mcg/kg IV, 180 min post dose
[25] = 3 mg/kg p.o., AII 0.05 mcg/kg IV, 240 min post dose
[26] = 3 mg/kg p.o., AII 0.1 mcg/kg IV, 240 min post dose

SMILES: CCCCc1nc2ccc(C(OC)C3CCCO3)cc2c(=O)n1Cc1ccc(-c2ccccc2-c2nn[nH]n2)cc1 (single isomer, unassigned; isomer 1) [Example 23, 2-Butyl-6-[methoxy(tetrahydro-2-furanyl)methyl-3-[[2'-(1H-tetrazol-5-yl)[1,1'-biphenyl]-4-yl]-methyl]-4(3e,uns/H/ )-quinazolinone isomer 1]
- % Inhibition of AII vasopressor response [1]: 97%
- Average Change (systolic blood pressure response to AII) [1]: 1 mmHg
- % Inhibition of AII vasopressor response [2]: 93%
- Average Change (systolic blood pressure response to AII) [2]: 2.5 mmHg
- % Inhibition of AII vasopressor response [3]: 79%
- Average Change (systolic blood pressure response to AII) [3]: 7.5 mmHg
- % Inhibition of AII vasopressor response [4]: 79%
- Average Change (systolic blood pressure response to AII) [4]: 7.5 mmHg
- % Inhibition of AII vasopressor response [5]: 79%
- Average Change (systolic blood pressure response to AII) [5]: 7.5 mmHg
- % Inhibition of AII vasopressor response [6]: 60%
- Average Change (systolic blood pressure response to AII) [6]: 14 mmHg
- % Inhibition of AII vasopressor response [7]: 50%
- Average Change (systolic blood pressure response to AII) [7]: 17.5 mmHg
- % Inhibition of AII vasopressor response [8]: 96%
- Average Change (systolic blood pressure response to AII) [8]: 1.5 mmHg
- % Inhibition of AII vasopressor response [9]: 84%
- Average Change (systolic blood pressure response to AII) [9]: 6.5 mmHg
- % Inhibition of AII vasopressor response [10]: 79%
- Average Change (systolic blood pressure response to AII) [10]: 8.5 mmHg
- % Inhibition of AII vasopressor response [11]: 81%
- Average Change (systolic blood pressure response to AII) [11]: 7.5 mmHg
- % Inhibition of AII vasopressor response [12]: 75%
- Average Change (systolic blood pressure response to AII) [12]: 10 mmHg
- % Inhibition of AII vasopressor response [13]: 50%
- Average Change (systolic blood pressure response to AII) [13]: 20 mmHg
- % Inhibition of AII vasopressor response [14]: 50%
- Average Change (systolic blood pressure response to AII) [14]: 20 mmHg
- % Inhibition of AII vasopressor response [15]: 58%
- Average Change (systolic blood pressure response to AII) [15]: 20 mmHg
- % Inhibition of AII vasopressor response [16]: 21%
- Average Change (systolic blood pressure response to AII) [16]: 37.5 mmHg
- % Inhibition of AII vasopressor response [17]: 37%
- Average Change (systolic blood pressure response to AII) [17]: 30 mmHg
- % Inhibition of AII vasopressor response [18]: 47%
- Average Change (systolic blood pressure response to AII) [18]: 25 mmHg
- % Inhibition of AII vasopressor response [19]: 21%
- Average Change (systolic blood pressure response to AII) [19]: 37.5 mmHg
- % Inhibition of AII vasopressor response [20]: 18%
- Average Change (systolic blood pressure response to AII) [20]: 45 mmHg
- % Inhibition of AII vasopressor response [21]: 14%
- Average Change (systolic blood pressure response to AII) [21]: 47.5 mmHg
- % Inhibition of AII vasopressor response [22]: 32%
- Average Change (systolic blood pressure response to AII) [22]: 37.5 mmHg
- % Inhibition of AII vasopressor response [23]: 36%
- Average Change (systolic blood pressure response to AII) [23]: 35 mmHg
- % Inhibition of AII vasopressor response [24]: 9%

SMILES: CCCCc1nc2ccc(C(O)C3CCN(C)C3=O)cc2c(=O)n1Cc1ccc(-c2ccccc2-c2nn[nH]n2)cc1 (single isomer, unassigned; isomer 2) [Example 33, 2-Butyl-6-[hydroxy(1-methyl-2-oxo-3-pyrrolidinyl)methyl-3-[[2'-(1H-tetrazol-5-yl)[1,1'-biphenyl]-4-yl]methyl]-4(3H)-quinazolinone isomer 2]
- % Inhibition of AII vasopressor response [1]: 100%
- Average Change (systolic blood pressure response to AII) [1]: 0 mmHg
- % Inhibition of AII vasopressor response [2]: 100%
- Average Change (systolic blood pressure response to AII) [2]: 0 mmHg
- % Inhibition of AII vasopressor response [3]: 100%
- Average Change (systolic blood pressure response to AII) [3]: 0 mmHg
- % Inhibition of AII vasopressor response [4]: 100%
- Average Change (systolic blood pressure response to AII) [4]: 0 mmHg
- % Inhibition of AII vasopressor response [5]: 81%
- Average Change (systolic blood pressure response to AII) [5]: 7.5 mmHg
- % Inhibition of AII vasopressor response [6]: 56%
- Average Change (systolic blood pressure response to AII) [6]: 17.5 mmHg
- % Inhibition of AII vasopressor response [7]: 44%
- Average Change (systolic blood pressure response to AII) [7]: 22.5 mmHg
- % Inhibition of AII vasopressor response [8]: 86%
- Average Change (systolic blood pressure response to AII) [8]: 7.5 mmHg
- % Inhibition of AII vasopressor response [9]: 89%
- Average Change (systolic blood pressure response to AII) [9]: 6 mmHg
- Average Change (systolic blood pressure response to AII) [10]: 7.5 mmHg
- % Inhibition of AII vasopressor response [11]: 81%
- Average Change (systolic blood pressure response to AII) [11]: 10 mmHg
- % Inhibition of AII vasopressor response [12]: 52%
- Average Change (systolic blood pressure response to AII) [12]: 25 mmHg
- % Inhibition of AII vasopressor response [13]: 33%
- Average Change (systolic blood pressure response to AII) [13]: 35 mmHg
- % Inhibition of AII vasopressor response [14]: 38%
- Average Change (systolic blood pressure response to AII) [14]: 32.5 mmHg
- % Inhibition of AII vasopressor response [15]: 80%
- Average Change (systolic blood pressure response to AII) [15]: 10 mmHg
- % Inhibition of AII vasopressor response [16]: 65%
- Average Change (systolic blood pressure response to AII) [16]: 17.5 mmHg
- % Inhibition of AII vasopressor response [17]: 50%
- Average Change (systolic blood pressure response to AII) [17]: 25 mmHg
- % Inhibition of AII vasopressor response [18]: 63%
- Average Change (systolic blood pressure response to AII) [18]: 18.5 mmHg
- % Inhibition of AII vasopressor response [19]: 35%
- Average Change (systolic blood pressure response to AII) [19]: 32.5 mmHg
- % Inhibition of AII vasopressor response [25]: 30%
- Average Change (systolic blood pressure response to AII) [25]: 35 mmHg
- % Inhibition of AII vasopressor response [20]: 63%
- Average Change (systolic blood pressure response to AII) [20]: 17.5 mmHg
- % Inhibition of AII vasopressor response [21]: 47%
- Average Change (systolic blood pressure response to AII) [21]: 25 mmHg
- % Inhibition of AII vasopressor response [22]: 37%
- Average Change (systolic blood pressure response to AII) [22]: 30 mmHg
- % Inhibition of AII vasopressor response [23]: 53%
- Average Change (systolic blood pressure response to AII) [23]: 22.5 mmHg
- % Inhibition of AII vasopressor response [24]: 21%
- Average Change (systolic blood pressure response to AII) [24]: 37.5 mmHg
- % Inhibition of AII vasopressor response [26]: 0%
- Average Change (systolic blood pressure response to AII) [26]: 47.5 mmHg
